Data set [1] relates to B16 tumors. The experiment in a line: Example 3: topical PEP005 with DC+IL-2 and M720/B16, larger primary B16 tumors. It is filed as in vivo, C57BL/6 mice. Conditions: topical dose printed 15 μg/ml, tumors 26-30 mm^2. The source says: To determine whether PEP005 treatment could synergize with (i) vaccine-induced anti-cancer CD4 T-cells/antibodies and/or (ii) vaccine-induced anti-cancer CD8^+ T-cells, topical PEP005 treatment was combined with vaccination using (i) B16 lysate emulsified in Montanide ISA 720 adjuvant (M720/B16) and (ii) DC2.4 cells sensitized with TRP-2 peptide, SVYDFFVWL [SEQ ID NO:1] and activated with LPS (DC). The latter group also received IL-2 to maintain the vaccine induced T-cells. […] This experiment sought to determine whether improvements in B16 cure rate could be achieved when sub-optimal topical PEP005 treatment was combined with other immune-based therapies. This experiment differed from that described in Example 2 in that treatment was initiated when tumors were slightly larger and the M720/B16 vaccine was given d0 not d−5, and the dose of B16 cells in that vaccine was increased 10-fold.
B16 tumors were injected 2×10^6 s.c. into C57BL/6 mice on d−3 and on dO when the tumors had reached an average size of 26-30 mm^2, the groups of animal received the following treatments. […]
PEP005+DCAL-2: PEP005 (as above) plus DC2.4 cells which were (i) sensitized with TRP-2 peptide, SVYDFFVWL [SEQ ID NO:1] […]

Data set [2] concerns Lewis lung-OVA tumors. The experiment in a line: Lewis lung-OVA primary cure and secondary challenge repeated in Foxnl^nu mice. It counts as in vivo. Conditions: PEP005-mediated cure of primary tumors.
For data set [3], the system named is B16 tumors. The experiment in a line: Example 4: i.t. PEP005 on RHS primary B16 tumor with or without DC+IL-2, growth of LHS secondary tumor. It counts as in vivo, C57BL/6 mice. The source says:
It has previously been established that PEP005-mediated curing of primary tumors can lead to the reduction secondary tumors in a B16-OVA lung metastasis and a s.c. Lewis lung-OVA model. These studies were extended (i) using a model where the model antigen ovalbumin is absent, (ii) using a system where both primary and secondary tumors are established before treatment initiation and (iii) using DC therapy combined with PEP005-mediated curing of primaries, to determine whether the two treatments can improve the anti-cancer effect on the secondary tumors.
[…], three groups of C57BL/6 mice were inoculated with 1×10^5 B16 s.c. on the right hand side of the back (RHS) and 2×10^4 s.c. on the left hand side of the back (LHS). A fourth group (Group 4) received only 2×10^4 s.c. on the left hand side of the back (LHS). On d0. the groups were given the following treatments:
PEP005 RHS: The larger RHS tumors were treated intra-tumorally with 25 μg PEP005 in 50 μl of 5% w/v DMSO in RPMI 1640 supplemented with HEPES 10 mM.
PEP005 RHS+DC+IL-2: The large RHS tumors were treated as for Group 1 plus the animals received on d0 DC2.4 cells (i) activated with LPS (for 3 hr incubation at 37° C. using 1 μg/ml E. coli 055:B5, Sigma), (ii) sensitized with TRP-2 peptide, SVYDFFVWL [SEQ ID NO:1] (30 μg/ml 2 hr, 37° C.), (iii) irradiated (5000 rads), washed and then injected i.v. (4×10^6/mouse iv) on d0. The animals also received rhIL-2 at 5×10^4 IU given twice daily per mouse from d0 to d4 i.p.
CONT TREAT RHS: Mock treatment group; the larger RHS tumors were treated intra-tumorally with 50 μl of 5% w/v DMSO in RPMI1640 supplemented with HEPES 10 mM.
NO RHS: This group had no RHS tumor and received no treatment.

The test system of data set [4] is Lewis lung-OVA tumors. Put plainly: Topical PEP005 treatment of Lewis lung-OVA tumors: tumor growth and SIINFEKL-specific CD8+ T-cell ELISPOT. It is filed as in vivo, C57BL/6 mice. As for the experimental part:
B16 and B16 cells stably expressing ovalbumin (B16-OVA)were grown s.c. in C57BL/6 mice as described previously (Ogbourne et al, Cancer Res 64:2833-2839, 2004; Anraku et al, J Virol 76:3791-3799, 2002). Lung metastases were established as described (Zeh et al, J Immunol 162:989-994, 1999). Lewis lung-OVA (Nelson et al, J Immunol 166:5557-5566, 2001) were grown s.c. in C57BL/6 as described (Lenarczyk et al, Vaccine 22:963-974, 2004).
Tumors were treated by topical or intratumoral (i.t.) injection (using a 26 gauge needle) of (i) PEP0005 dissolved in acetone and then RPMI 1640 (final concentration of acetone 4%), or (ii) PEP005 formulated in PEG400.
Mouse splenocytes were analyzed by ex vivo IFNγ ELISPOT essentially as described previously (Le et al, Vaccine 19:4669-4675, 2001), but using MultiScreen-IP plates (Millipore) and 25 IU/ml of recombinant human IL-2 (Cetus).
Lewis lung-OVA tumors were established on five C57/B16 mice; when they had reached 10-20 mm^2, they were treated topically with PEP005. […] A parallel group of tumor-bearing mice (M7-12) were treated (vehicle only) and grew rapidly as expected with mean size±SD shown (FIG. 2, V(M7-12)). […] The sensitivity of this assay is about five spots per 10^6 splenocytes. […] Thus, again PEP005 treatment was associated with induction of anti-cancer CD8^+ T-cells.

The mark [5] stands for this setting: topical PEP005, tumors 10-20 mm^2 at treatment.

With `C/C=C(/C)C(=O)O[C@H]1C(C)=C[C@]23C(=O)[C@@H](C=C(CO)[C@@H](O)[C@]12O)[C@H]1[C@@H](C[C@H]3C)C1(C)C` [PEP005, ingenol-3-angelate], the “cure of B16 tumors by topical PEP005 alone” value in data set [1] is reported as “did not cure most B16 tumors”. Further, the “protection against secondary challenge” value in data set [2] was “no protective effect”. Moreover, in data set [3] (25 μg PEP005 in 50 μl of 5% w/v DMSO in RPMI 1640, i.t.), the “tolerability of i.t. treatment” value is reported as “not well tolerated”. Moreover, in data set [3] (i.t. 25 μg PEP005 on d0), the “RHS (primary) tumors successfully cured” value was 5/6. In data set [3] (in each of Group 1 and 2 (n=7 each), PEP005 using DMSO), the “mice dying shortly after i.t. treatment” value was “one”. Further, the “survival (deaths due to growth of LHS tumor) vs NO RHS group” value in data set [3] (mouse, in vivo) was “behaved essentially identically”. Further, in data set [3] (p=0.042), the “growth of LHS (secondary) tumor d5 to d11 vs NO RHS” value is given as “slower”. Also, the “SIINFEKL-specific CD8+ T-cell responses” value in data set [4] (animals with Lewis lung-OVA tumors treated topically with PEP005) was “a range of responses that correlated with the effectiveness of the treatment”. The “SIINFEKL-specific CD8+ T-cell responses, mean ± SD for all mice” value in data set [4] (topical PEP005, mice without tumors, assay sensitivity about five spots) is reported as 6.3±9.8 spots per 10^6 splenocytes. In addition, in data set [4] (setting [5]), the “animals showing a limited response of five treated” value is listed as “two”, the “animals showing a partial response of five treated” value is reported as “two” and the “tumors cured of the five tumors treated” value is given as “one”.

For the origin of these results see patent publication US8106092B2, “Treatment of solid cancers” (priority 2004, dated 2012).
